Laboratory results reported in ChEMBL document CHEMBL4334508, “Oleanolic Acid Derivatives as Potential Inhibitors of HIV-1 Protease” (J Nat Prod, 2019).

These molecules were tested against Protease (Human immunodeficiency virus 1, UniProt Q9YQ12) (assay: Inhibition of HIV1 protease expressed in Escherichia coli using Abz-Ala-Arg-Val-Nle-Tyr(NO2)-Glu-Ala-Nle-NH2 peptide as substrate by FRET assay).
Chain of Protease (Q9YQ12 whole entry): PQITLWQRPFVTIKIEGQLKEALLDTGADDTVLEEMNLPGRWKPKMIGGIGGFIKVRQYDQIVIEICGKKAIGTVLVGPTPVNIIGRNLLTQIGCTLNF

SMILES | IC50 [µM]
CCCCCCCCCCCC(=O)O[C@H]1CC[C@]2(C)[C@H]3CC=C4[C@@H]5CC(C)(C)CC[C@]5(C(=O)NCCCC(=O)N[C@H](C(=O)O)C(C)C)CC[C@@]4(C)[C@]3(C)CC[C@H]2C1(C)C | > 50
CC(=O)O[C@H]1CC[C@]2(C)[C@H]3CC=C4[C@@H]5CC(C)(C)CC[C@]5(C(=O)NCCCC(=O)N[C@H](C(=O)O)C(C)C)CC[C@@]4(C)[C@]3(C)CC[C@H]2C1(C)C | > 50
CC(C)[C@H](NC(=O)CCCCCCCCCCNC(=O)[C@]12CCC(C)(C)C[C@H]1C1=CC[C@@H]3[C@@]4(C)CC[C@H](OC(=O)c5ccccc5)C(C)(C)[C@@H]4CC[C@@]3(C)[C@]1(C)CC2)C(=O)O | > 50
CCCCCC(=O)O[C@H]1CC[C@]2(C)[C@H]3CC=C4[C@@H]5CC(C)(C)CC[C@]5(C(=O)NCCCC(=O)N[C@H](C(=O)O)C(C)C)CC[C@@]4(C)[C@]3(C)CC[C@H]2C1(C)C | > 50
CCCCCC(=O)O[C@H]1CC[C@]2(C)[C@H]3CC=C4[C@@H]5CC(C)(C)CC[C@]5(C(=O)NCCCCCCCCCCC(=O)N[C@H](C(=O)O)C(C)C)CC[C@@]4(C)[C@]3(C)CC[C@H]2C1(C)C | > 50
CCC(=O)O[C@H]1CC[C@]2(C)[C@H]3CC=C4[C@@H]5CC(C)(C)CC[C@]5(C(=O)NCCCCCCCCCCC(=O)N[C@H](C(=O)O)C(C)C)CC[C@@]4(C)[C@]3(C)CC[C@H]2C1(C)C | > 50
CC(C)[C@H](NC(=O)CCCNC(=O)[C@]12CCC(C)(C)C[C@H]1C1=CC[C@@H]3[C@@]4(C)CC[C@H](OC(=O)c5ccccc5)C(C)(C)[C@@H]4CC[C@@]3(C)[C@]1(C)CC2)C(=O)O | > 50
CCCCCCCCCCCC(=O)O[C@H]1CC[C@]2(C)[C@H]3CC=C4[C@@H]5CC(C)(C)CC[C@]5(C(=O)NCCCCCC(=O)N[C@H](C(=O)O)C(C)C)CC[C@@]4(C)[C@]3(C)CC[C@H]2C1(C)C | > 50
CCCCCC(=O)O[C@H]1CC[C@]2(C)[C@H]3CC=C4[C@@H]5CC(C)(C)CC[C@]5(C(=O)NCCCCCC(=O)N[C@H](C(=O)O)C(C)C)CC[C@@]4(C)[C@]3(C)CC[C@H]2C1(C)C | > 50
CC(C)[C@H](NC(=O)CCCCCCCCCCNC(=O)[C@]12CCC(C)(C)C[C@H]1C1=CC[C@@H]3[C@@]4(C)CC[C@H](OC(=O)CC(C)(C)CC(=O)O)C(C)(C)[C@@H]4CC[C@@]3(C)[C@]1(C)CC2)C(=O)O | > 50
CC(=O)O[C@H]1CC[C@]2(C)[C@H]3CC=C4[C@@H]5CC(C)(C)CC[C@]5(C(=O)NCCCCCCCCCCC(=O)N[C@H](C(=O)O)C(C)C)CC[C@@]4(C)[C@]3(C)CC[C@H]2C1(C)C | > 50
CCCC(=O)O[C@H]1CC[C@]2(C)[C@H]3CC=C4[C@@H]5CC(C)(C)CC[C@]5(C(=O)NCCCCCC(=O)N[C@H](C(=O)O)C(C)C)CC[C@@]4(C)[C@]3(C)CC[C@H]2C1(C)C | > 50
CC(C)[C@H](NC(=O)CCCCCCCCCCNC(=O)[C@]12CCC(C)(C)C[C@H]1C1=CC[C@@H]3[C@@]4(C)CC[C@H](OC(=O)CCCC(=O)O)C(C)(C)[C@@H]4CC[C@@]3(C)[C@]1(C)CC2)C(=O)O | > 50
CCC(=O)O[C@H]1CC[C@]2(C)[C@H]3CC=C4[C@@H]5CC(C)(C)CC[C@]5(C(=O)NCCCCCC(=O)N[C@H](C(=O)O)C(C)C)CC[C@@]4(C)[C@]3(C)CC[C@H]2C1(C)C | > 50
C[C@H](NC(=O)CCCCCCCCCCNC(=O)[C@]12CCC(C)(C)C[C@H]1C1=CC[C@@H]3[C@@]4(C)CC[C@H](OC(=O)CCC(=O)O)C(C)(C)[C@@H]4CC[C@@]3(C)[C@]1(C)CC2)C(=O)O | > 50
CCC(=O)O[C@H]1CC[C@]2(C)[C@H]3CC=C4[C@@H]5CC(C)(C)CC[C@]5(C(=O)NCCCC(=O)N[C@H](C(=O)O)C(C)C)CC[C@@]4(C)[C@]3(C)CC[C@H]2C1(C)C | > 50
CCCC(=O)O[C@H]1CC[C@]2(C)[C@H]3CC=C4[C@@H]5CC(C)(C)CC[C@]5(C(=O)NCCCCCCCCCCC(=O)N[C@H](C(=O)O)C(C)C)CC[C@@]4(C)[C@]3(C)CC[C@H]2C1(C)C | > 50
C[C@H](NC(=O)CCCCCCCCCCNC(=O)[C@]12CCC(C)(C)C[C@H]1C1=CC[C@@H]3[C@@]4(C)CC[C@H](OC(=O)CCCC(=O)O)C(C)(C)[C@@H]4CC[C@@]3(C)[C@]1(C)CC2)C(=O)O | > 50
CCCCCCCCCCCC(=O)O[C@H]1CC[C@]2(C)[C@H]3CC=C4[C@@H]5CC(C)(C)CC[C@]5(C(=O)NCCCCCCCCCCC(=O)N[C@H](C(=O)O)C(C)C)CC[C@@]4(C)[C@]3(C)CC[C@H]2C1(C)C | > 50

Further lines, results first:

IC50 [µM] | SMILES
> 50 | CC(C)[C@H](NC(=O)CCCCCNC(=O)[C@]12CCC(C)(C)C[C@H]1C1=CC[C@@H]3[C@@]4(C)CC[C@H](OC(=O)c5ccccc5)C(C)(C)[C@@H]4CC[C@@]3(C)[C@]1(C)CC2)C(=O)O
> 50 | CCCC(=O)O[C@H]1CC[C@]2(C)[C@H]3CC=C4[C@@H]5CC(C)(C)CC[C@]5(C(=O)NCCCC(=O)N[C@H](C(=O)O)C(C)C)CC[C@@]4(C)[C@]3(C)CC[C@H]2C1(C)C
1 | C[C@H](NC(=O)CCCCCCCCCCNC(=O)[C@]12CCC(C)(C)C[C@H]1C1=CC[C@@H]3[C@@]4(C)CC[C@H](OC(=O)c5ccccc5C(=O)O)C(C)(C)[C@@H]4CC[C@@]3(C)[C@]1(C)CC2)C(=O)O
> 50 | CC(C)[C@H](NC(=O)CCCCCCCCCCNC(=O)[C@]12CCC(C)(C)C[C@H]1C1=CC[C@@H]3[C@@]4(C)CC[C@H](OC(=O)CCC(=O)O)C(C)(C)[C@@H]4CC[C@@]3(C)[C@]1(C)CC2)C(=O)O
> 50 | C[C@H](NC(=O)CCCCCCCCCCNC(=O)[C@]12CCC(C)(C)C[C@H]1C1=CC[C@@H]3[C@@]4(C)CC[C@H](OC(=O)CC(C)(C)CC(=O)O)C(C)(C)[C@@H]4CC[C@@]3(C)[C@]1(C)CC2)C(=O)O
41.5 | CC(C)[C@H](NC(=O)CCCNC(=O)[C@]12CCC(C)(C)C[C@H]1C1=CC[C@@H]3[C@@]4(C)CC[C@H](OC(=O)CCC(=O)O)C(C)(C)[C@@H]4CC[C@@]3(C)[C@]1(C)CC2)C(=O)O
30.3 | CC(=O)O[C@H]1CC[C@]2(C)[C@H]3CC=C4[C@@H]5CC(C)(C)CC[C@]5(C(=O)NCCCCCC(=O)N[C@H](C(=O)O)C(C)C)CC[C@@]4(C)[C@]3(C)CC[C@H]2C1(C)C
17.9 | CC(C)[C@H](NC(=O)CCCCCNC(=O)[C@]12CCC(C)(C)C[C@H]1C1=CC[C@@H]3[C@@]4(C)CC[C@H](OC(=O)CCCC(=O)O)C(C)(C)[C@@H]4CC[C@@]3(C)[C@]1(C)CC2)C(=O)O
0.59 | CC(C)[C@H](NC(=O)CCCCCNC(=O)[C@]12CCC(C)(C)C[C@H]1C1=CC[C@@H]3[C@@]4(C)CC[C@H](OC(=O)c5ccccc5C(=O)O)C(C)(C)[C@@H]4CC[C@@]3(C)[C@]1(C)CC2)C(=O)O
19.8 | CC(C)[C@H](NC(=O)CCCNC(=O)[C@]12CCC(C)(C)C[C@H]1C1=CC[C@@H]3[C@@]4(C)CC[C@H](OC(=O)CCCC(=O)O)C(C)(C)[C@@H]4CC[C@@]3(C)[C@]1(C)CC2)C(=O)O
46.3 | CC(C)[C@H](NC(=O)CCCNC(=O)[C@]12CCC(C)(C)C[C@H]1C1=CC[C@@H]3[C@@]4(C)CC[C@H](OC(=O)CC(C)(C)CC(=O)O)C(C)(C)[C@@H]4CC[C@@]3(C)[C@]1(C)CC2)C(=O)O
1.2 | CC(C)[C@H](NC(=O)CCCCCCCCCCNC(=O)[C@]12CCC(C)(C)C[C@H]1C1=CC[C@@H]3[C@@]4(C)CC[C@H](OC(=O)c5ccccc5C(=O)O)C(C)(C)[C@@H]4CC[C@@]3(C)[C@]1(C)CC2)C(=O)O
9.6 | CC(C)[C@H](NC(=O)CCCCCNC(=O)[C@]12CCC(C)(C)C[C@H]1C1=CC[C@@H]3[C@@]4(C)CC[C@H](OC(=O)CCC(=O)O)C(C)(C)[C@@H]4CC[C@@]3(C)[C@]1(C)CC2)C(=O)O
23.2 | CC(C)[C@H](NC(=O)CCCCCNC(=O)[C@]12CCC(C)(C)C[C@H]1C1=CC[C@@H]3[C@@]4(C)CC[C@H](OC(=O)CC(C)(C)CC(=O)O)C(C)(C)[C@@H]4CC[C@@]3(C)[C@]1(C)CC2)C(=O)O
0.24 | CC(=O)N[C@H](C(=O)N[C@H](C(=O)N[C@@H](CC(C)C)[C@@H](O)CC(=O)N[C@@H](C)C(=O)N[C@@H](CC(C)C)[C@@H](O)CC(=O)O)C(C)C)C(C)C [ACETYLPEPSTATIN]
